pIC50: −log10 of the molar value. Calls of active or inactive are those of the source. The rule behind the calls is not given here.

The term IC50 denotes the concentration needed to halve the response being measured. In general, pIC50 refers to the IC50 on a negative log10 scale, so that one unit is a factor of ten.

The target of the assay is alkaline phosphatase, placental type (Homo sapiens). Briefly: inhibition of placental alkaline phosphatase – biochemical, uHTS hits, selectivity assay for mouse IAP inhibitor project, dose response (AID 488879). The note with it: purified human placental alkaline phosphatase, enzymatic inhibition.

In the case of `COc1cccc(NC(=O)CN(C)S(=O)(=O)c2ccc3[nH]c(=O)oc3c2)c1`, the IC50 was > 100 µM (inactive).
For `O=C(NN1C(=O)/C(=C/C=C/c2ccco2)SC1=S)c1ccccc1O`, the negative logarithm of the IC50 (pIC50) is 4.57.
On to `COc1cc(/C=C/C(O)=C/C(=O)/C=C/c2ccc(O)cc2)ccc1O`, for which the IC50 is > 100 µM (inactive).
In the case of `C#CCOCCOCCOCCNc1nc(N2CCN(C(=O)CCCCCCCCCCNC(=O)Cn3cc(C[C@@H](C)O)nn3)CC2)nc(N2CCN(C(=O)CCCCCCCCCCNC(=O)[C@H](CCCCN)n3cc(C[C@@H](C)CC)nn3)CC2)n1`, the IC50 is > 100 µM (inactive).
The same measure, in the same setting: the result for `Cc1cc(O)c(Sc2ncn[nH]2)cc1NS(=O)(=O)c1ccc(Cl)cc1` reads > 100 µM (inactive); that for `COc1cccc(NC(=S)NCCC(c2ccccc2)c2ccccc2)c1`, > 100 µM (inactive); that for `O=C1/C(=C\c2cccc(O)c2O)SC(=S)N1Cc1ccccc1`, > 100 µM (inactive).
In the case of `N#Cc1c(SCC(=O)Nc2nncs2)sc2c(O)cc(=O)[nH]c12`, the IC50 was > 100 µM (inactive).
On to `COc1cc(/C=N/NC(=O)c2cc(O)cc(O)c2)ccc1OC(=O)c1ccccc1`, for which the pIC50 is 4.15.
With `O=S(=O)(c1ccc(NC(=S)N/N=C/c2ccc(O)c(O)c2)cc1)N1CCOCC1`, the pIC50 was 5.63.
Turning to `O=C(O)CCCN1C(=O)/C(=C/C=C/c2ccco2)SC1=S`, the IC50 was > 100 µM (inactive).
Consider `Cc1nonc1C(=O)N/N=C/c1ccc(O)c(O)c1`, for which the pIC50 is 4.74.
Take `CCCn1ncc(CN2CCC(C(=O)Nc3cccc(-c4cccc(F)c4)c3)CC2)c1C`: the IC50 is > 100 µM (inactive).
For the compound `NS(=O)(=O)c1cccc(NC(=O)CSc2nnc(-c3ccncc3)n2C2CC2)c1`, the IC50 is > 100 µM (inactive).
`O=[N+]([O-])c1ccccc1NC(=S)N/N=C/c1ccc(O)c(O)c1`: the IC50 is > 100 µM (inactive).
Consider `O=c1[nH]c2ccc(S(=O)(=O)N3CCCCC3)cc2o1`, for which the IC50 was > 100 µM (inactive).
Still for that read-out and setting: then `CC(C)(C)c1ccc(O)c(N=Cc2cc3c(cc2[N+](=O)[O-])OCO3)c1`, with > 100 µM (inactive).
Take `O=C(c1c(O)cc(O)cc1O)C1c2c(cc(O)c3c2O[C@H](c2ccc(O)cc2)[C@@H](O)C3)OC1c1ccc(O)cc1` (stereo not given in full): the pIC50 was 4.63.
Consider `Cc1ccc(CN2C3CCCC2CC(NC(=O)Nc2cccc(F)c2)C3)cc1` (stereo not given), for which the IC50 was > 100 µM (inactive).
`O=C(COc1ccccc1C(=O)N/N=C\c1ccc(O)c(O)c1)N/N=C/c1ccc(O)c(O)c1`: the IC50 is > 100 µM (inactive).
Consider `O=C(COC(=O)COc1ccccc1)Nc1ncc([N+](=O)[O-])s1`, for which the IC50 is > 100 µM (inactive).
Still for that read-out and setting: then `COc1cc(/C=N/N2C(=O)CSC2=S)ccc1O`, with > 100 µM (inactive).
With `O=C(NN1C(=O)/C(=C/c2ccc(O)cc2)SC1=S)c1ccccc1O`, the IC50 was > 100 µM (inactive).
For `COCc1ccc(CN2CCC(C(=O)Nc3cccc(-c4cccc(Cl)c4)c3)CC2)o1`, the IC50 was > 100 µM (inactive).
The same measure, in the same setting: then `N#CC(C#N)=Cc1ccc(O)c(O)c1`, with > 100 µM (inactive); and `Clc1ccc(C(c2ccc(Cl)cc2)n2cc[n+](CC(OCc3ccc(Cl)cc3Cl)c3ccc(Cl)cc3Cl)c2)cc1` (stereo not given), with > 100 µM (inactive).
For the compound `NC1=NC(=O)/C(=C\c2ccco2)S1`, the pIC50 is 4.49.
Consider `Cc1cccnc1Nc1nc(-c2ccc(O)c(O)c2)cs1`, for which the IC50 was > 100 µM (inactive).
As to `CN(c1ccccc1C(=O)O)S(=O)(=O)c1ccc2c3c(cccc13)C(=O)N2`, the IC50 is > 100 µM (inactive).
`O=c1ccc2c(-c3ccccc3S(=O)(=O)O)c3ccc(O)c(O)c3oc-2c1O`: the IC50 was > 100 µM (inactive).
As to `CC(/C=C/C1(O)C(C)CC(=O)CC1(C)C)OC1OC(CO)C(O)C(O)C1O` (stereo not given), the IC50 is > 100 µM (inactive).
With `Nc1nnc(CC(=O)N/N=C/c2cc([N+](=O)[O-])cc(Br)c2O)s1`, the IC50 is > 100 µM (inactive).
For `CCOc1ccccc1CNC(=O)CCNS(=O)(=O)c1ccc2[nH]c(=O)oc2c1`, the IC50 is > 100 µM (inactive).
Regarding `O=C1CNC(=S)N1CCc1ccc(O)c(O)c1`, the IC50 is > 100 µM (inactive).
As to `CCOc1ccc(S(=O)(=O)Nc2cc(Sc3ncn[nH]3)c3oc(=O)sc3c2)cc1`, the IC50 is > 100 µM (inactive).
As for `CCCCCOc1ccc(C(=O)CCC(=O)NNC(=O)c2ccncc2)cc1`, the IC50 was > 100 µM (inactive).
Turning to `OCCCN1c2ccccc2Nc2nnc(-c3ccccc3)cc21`, the IC50 was > 100 µM (inactive).
Regarding `Cc1cc(Cn2nc(-c3ccccc3)cc2C(=O)NCc2cccc(C(F)(F)F)c2)on1`, the IC50 is > 100 µM (inactive).
As for `COc1ccc(N2C(=O)/C(=C/c3ccco3)C(=O)NC2=S)cc1`, the pIC50 was 4.19.
Regarding `Cc1nn(C(C)C)c(C)c1CN1CCC(C(=O)Nc2cccc(-c3cccc(F)c3)c2)CC1`, the pIC50 is 4.25.

These data come from PubChem BioAssay AID488879 (Sanford-Burnham Center for Chemical Genomics, 2010).
